This is an account of results in ChEMBL document CHEMBL5674860, “Optimized Dual-Glo Assay to identify co-culture-induced drug vulnerabilities in 3D CRC models” (2024).

Holding throughout (format): functional, Homo sapiens
What all share (parameters): dose or concentration left out as unconfirmed

For assay [1], the system named is Colon cancer organoid. The assay is described as follows: Optimized Dual-Glo assay to identify co-culture induced drug vulnerabilities using donated chemical probes and chemogenomics kinase set in O06 CRC organoid and F06 CAF mono and co-culture. […] Cell viability is reported both mono and co-culture models.
Assay [2] concerns Colon cancer organoid. The assay is described as follows: Optimized Dual-Glo assay to identify co-culture induced drug vulnerabilities using donated chemical probes and chemogenomics kinase set in O14 CRC organoid and F14 CAF mono and co-culture. […] Cell viability is reported both mono and co-culture models.
Assay [3] concerns Colon cancer organoid. The assay is described as follows: Optimized Dual-Glo assay to identify co-culture induced drug vulnerabilities using donated chemical probes and chemogenomics kinase set in O20 CRC organoid and F20 CAF mono and co-culture. […] Cell viability is reported both mono and co-culture models.
[4] abbreviates: Culture type Co-Culture, Transduced with Lucferase2-P2A-EGFP lentivirus.
[5] abbreviates: Culture type Co-Culture, Transduced with Renilla-dsRed lentivirus.
Where [6] appears, read: Culture type Mono-Culture, Transduced with Lucferase2-P2A-EGFP lentivirus.
The mark [7] stands for this setting: Culture type Mono-Culture, Transduced with Renilla-dsRed lentivirus.

As for `COc1ccc(Cn2ccc3ccc(C(=O)NO)cc32)cc1`, the “Cell Viability” value was found to be 111.578% in assay [1] (setting [4]); 129.424% in assay [1] (setting [5]); 126.919% in assay [1] (setting [6]); 118.855% in assay [1] (setting [7]); 71.3405% in assay [2] (setting [4]); 118.85% in assay [2] (setting [5]). Moreover, the “Cell Viability” value in assay [2] (setting [6]) was 119.497%; in assay [2] (setting [7]), 102.466%; in assay [3] (setting [4]), 176.611%; in assay [3] (setting [5]), 111.53%; in assay [3] (setting [6]) it was 111.23%; in assay [3] (setting [7]) it was 102.771%.

For `CCCOc1ccn2c(C(C)=O)cc(-c3cccc(OC)c3)c2c1`, the “Cell Viability” value in assay [1] (setting [4]) is 110.241%; in assay [1] (setting [5]) it was 146.669%; in assay [1] (setting [6]), 131.845%; in assay [1] (setting [7]), 119.651%; in assay [2] (setting [4]), 84.3946%; in assay [2] (setting [5]), 120.115%. Further, the “Cell Viability” value in assay [2] (setting [6]) stood at 124.987%; in assay [2] (setting [7]), 98.1469%; in assay [3] (setting [4]), 76.4747%; in assay [3] (setting [5]) it was 110.044%; in assay [3] (setting [6]), 113.084%; in assay [3] (setting [7]) it was 103.998%.

For the molecule `CN1C[C@H](Nc2cnn(C)c(=O)c2Br)C[C@H](c2ccccc2)C1`, the “Cell Viability” value in assay [1] (setting [4]) stood at 52.3497%; in assay [1] (setting [5]) it was 181.327%; in assay [1] (setting [6]), 101.698%; in assay [1] (setting [7]), 109.538%; in assay [2] (setting [4]), 72.8555%; in assay [2] (setting [5]) it was 143.992%. For the same molecule, the “Cell Viability” value worked out at 98.7271% in assay [2] (setting [6]); 111.977% in assay [2] (setting [7]); 159.897% in assay [3] (setting [4]); 106.068% in assay [3] (setting [5]); 104.311% in assay [3] (setting [6]); 120.493% in assay [3] (setting [7]).

Turning to `CO[C@H]1CNC[C@@H](OCC2CCC(F)(F)CC2)[C@@H]1Nc1ncc(-c2cncc(C)c2)c2cc(C)c(=O)[nH]c12`, the “Cell Viability” value in assay [1] (setting [4]) is listed as 95.0954%; in assay [1] (setting [5]) it was 138.476%; in assay [1] (setting [6]), 98.6849%; in assay [1] (setting [7]), 128.396%; in assay [2] (setting [4]), 95.7966%; in assay [2] (setting [5]), 88.7201%. Moreover, the “Cell Viability” value was found to be 127.619% in assay [2] (setting [6]); 100.555% in assay [2] (setting [7]); 171.391% in assay [3] (setting [4]); 122.949% in assay [3] (setting [5]); 125.457% in assay [3] (setting [6]); 102.001% in assay [3] (setting [7]).

As for `CCOC(=O)CCNc1cc(N2CCc3ccccc3CC2)nc(-c2cccnc2)n1`, the “Cell Viability” value in assay [1] (setting [4]) came out at 130.773%; in assay [1] (setting [5]), 124.082%; in assay [1] (setting [6]), 90.274%; in assay [1] (setting [7]), 111.34%; in assay [2] (setting [4]), 62.9469%; in assay [2] (setting [5]), 109.109%. Moreover, the “Cell Viability” value worked out at 99.8423% in assay [2] (setting [6]); 94.8955% in assay [2] (setting [7]); 102.18% in assay [3] (setting [4]); 131.422% in assay [3] (setting [5]); 61.9891% in assay [3] (setting [6]); 99.1525% in assay [3] (setting [7]).

With `CC(C)Oc1ccc(-c2c[nH]cc2CN(C)CCO)cc1`, the “Cell Viability” value stood at 112.392% in assay [1] (setting [4]); 114.959% in assay [1] (setting [5]); 84.6605% in assay [1] (setting [6]); 116.102% in assay [1] (setting [7]); 119.367% in assay [2] (setting [4]); 107.888% in assay [2] (setting [5]). The “Cell Viability” value was determined as 90.5544% in assay [2] (setting [6]); 99.1586% in assay [2] (setting [7]); 114.035% in assay [3] (setting [4]); 121.653% in assay [3] (setting [5]); 114.538% in assay [3] (setting [6]); 100.305% in assay [3] (setting [7]).
